Measured values taken from patent publication US20250099472A1, “RUXOLITINIB FOR THE TREATMENT OF PRURIGO NODULARIS” (INCYTE CORPORATION, priority 2021, published 2025).

Legend:
[1] = test system: skin biopsies from active disease, untreated, prurigo nodularis patients; assay: Ruxolitinib-mediated pharmacological inhibition of PN pathophysiology: proteins secreted by cultured PN skin explants, Procarta Multiplex Immunoassay; format: cell-based, human; details: for percent inhibition of IFN-gamma / percent inhibition of IL-2 / percent inhibition of IL-8 (CXCL8) / percent inhibition of IL-10 / percent inhibition of IL-17 alpha (CTLA-8) / percent inhibition of IP-10 (CXCL10): culture supernatant vs DMSO
Procedure: Full-thickness cutaneous skin biopsies were obtained from active disease, untreated, prurigo nodularis patients. Single 4 mm-punch biopsies were obtained from the same lesion for each patient and longitudinally divided into two pieces (see FIG. 1). FIG. 1 depicts a representation of skin punch biopsies used for the JAK1/JAK2 mediated pharmacological inhibition of PN pathophysiology. Biopsies were cultured for 8 days in KBM media+CaCl2 and refreshed every 2-3 days. Ruxolitinib phosphate or DMSO (control) was added to the cell culture media. Conditioned supernatants collected during/prior to media refresh were stored at −80° C. for subsequent analysis. On day 8, cultures were terminated and tissue RNA isolated for subsequent analysis.
Collected supernatants were analyzed to quantify chemokines, cytokines, and growth factors secreted by skin explants in culture and which are involved in inflammation. A total of 51 proteins were detected and quantified in culture supernatants by Procarta Multiplex Immunoassay (Thermo Fisher, Waltham, MA). Supernatants and standards were incubated at 4° C. overnight. Assay plates were read on a Luminex 200 Instrument (Luminex Corporation, Austin, TX). The concentration was extrapolated from the antigen standard curve of each analyte. The percent inhibition determined for each analyte as the difference in protein concentration in cultures with DMSO (CD) versus those with ruxolitinib (CJ), (CD−CJ)/CD (see FIG. 2).

[2] = Solubility of ruxolitinib free base or 1:1 phosphate salt in potential solvents (HPLC); format: physicochemical; details: room temperature, 24 hours
Procedure: First, in order to determine the solubility of ruxolitinib (free base) or its 1:1 phosphate salt, approximately 5 mL of a potential solvent was added to approximately 50 mg of the API or its salt at room temperature. The mixtures were suspended and rotated on a wheel. If the mixtures became clear solutions, more solid material was added. The suspensions were then suspended over 24 hours. The samples were filtered through 0.2 micron filters. The liquid portions were collected and diluted with 50/50 water methanol/water. The concentrations of the diluted samples were analyzed by HPLC. When the free base or salt was fairly insoluble, the results are approximate only.

PN skin = PN skin cultured with nemolizumab; cited from earlier work
PN patients = details: inhibition of IL-31; cited from earlier work

Molecule: Cc1n[nH]c(C)c1-c1cnn(C2(CC#N)CN(c3cc(F)c(C(=O)N[C@@H](C)C(F)(F)F)cc3F)C2)c1 [4-[3-(cyanomethyl)-3-(3′,5′-dimethyl-1H,1′H-4,4′-bipyrazol-1-yl)azetidin-1-yl]-2,5-difluoro-N-[(1S)-2,2,2-trifluoro-1-methylethyl]benzamide]
- percent inhibition of IL-5 ([1]; 48 hours, same assays): 20.25%
- percent inhibition of IL-22 ([1]; 48 hours, same assays): 11.16%

Molecule: N#CC[C@H](C1CCCC1)n1cc(-c2ncnc3[nH]ccc23)cn1 [ruxolitinib]
- Solubility ([2]; C12-15 alcohol benzoate, approximate, listed as Free Base): 0.15 mg/mL
- Solubility ([2]; Caprylic triglyceride, approximate, listed as Free Base): 0.15 mg/mL
- Solubility ([2]; Dimethicone, approximate, listed as Free Base): 0.15 mg/mL
- Solubility ([2]; Isopropanol, listed as Free Base): 0.45 mg/mL
- Solubility ([2]; Isopropyl myristate, approximate): 0.08 mg/mL
- Solubility ([2]; Isosorbide dimethyl ether, listed as Free Base): 0.3 mg/mL
- Solubility ([2]; Mineral oil, approximate): 0.08 mg/mL
- Solubility ([2]; Olelyl alcohol, approximate, listed as Free Base): 0.08 mg/mL
- Solubility ([2]; Propylene glycol, listed as Free Base): 18.2 mg/mL
- Solubility ([2]; Water/glycerin/trolamine (40/40/20)): 13.6 mg/mL
- percent inhibition of IFN-gamma ([1]; 48 hr): 5.0%
- percent inhibition of IL-2 ([1]; 48 hr): 17.8%
- percent inhibition of IL-8 (CXCL8) ([1]; 48 hr): 13.7%
- percent inhibition of IL-10 ([1]; 48 hr): 36.2%
- percent inhibition of IL-17 alpha (CTLA-8) ([1]; 48 hr): 63.9%
- percent inhibition of IP-10 (CXCL10) ([1]; 48 hr): 9.7%
- percent inhibition of IFN-gamma ([1]; 96 hr): 11.6%
- percent inhibition of IL-2 ([1]; 96 hr): 16.6%
- percent inhibition of IL-8 (CXCL8) ([1]; 96 hr): ** (no measureable inhibition)
- percent inhibition of IL-10 ([1]; 96 hr): 39.9%
- percent inhibition of IL-17 alpha (CTLA-8) ([1]; 96 hr): 57.6%
- percent inhibition of IP-10 (CXCL10) ([1]; 96 hr): 60.3%

B1: nemolizumab: an IL-31 inhibitor; anti-IL-31 antibody (antibody, chains of the INN, looked up)
heavy: QVQLVQSGAEVKKPGASVKVSCKASGYTFTGYIMNWVRQAPGQGLEWMGLINPYNGGTDYNPQFQDRVTITADKSTSTAYMELSSLRSEDTAVYYCARDGYDDGPYTLETWGQGTLVTVSSASTKGPSVFPLAPSSKSTSGGTAALGCLVKDYFPEPVTVSWNSGALTSGVHTFPAVLQSSGLYSLSSVVTVPSSNFGTQTYTCNVDHKPSNTKVDKTVERKSCVECPPCPAPPVAGPSVFLFPPKPKDTLMISRTPEVTCVVVDVSQEDPEVQFNWYVDGVEVHNAKTKPREEQFNSTFRVVSVLTVVHQDWLNGKEYKCKVSNKGLPAPIEKTISKTKGQPREPQVYTLPPSQEEMTKNQVSLTCLVKGFYPSDIAVEWESNGQPENNYKTTPPMLDSDGSFFLYSKLTVDKSRWQEGNVFSCSVMHEALHNHYTQKSLSLSP
light: DIQMTQSPSSLSASVGDRVTITCQASEDIYSFVAWYQQKPGKAPKLLIYNAQTEAQGVPSRFSGSGSGTDFTLTISSLQPEDFATYYCQHHYDSPLTFGGGTKVEIKRTVAAPSVFIFPPSDEQLKSGTASVVCLLNNFYPREAKVQWKVDNALQSGNSQESVTEQDSKDSTYSLSSTLTLSKADYEKHKVYACEVTHQGLSSPVTKSFNRGEC
- IL-17 levels in lesional skin (PN skin): reduction in IL-17 levels
- pruritus and skin lesions in PN patients (PN patients): improvement in pruritus and skin lesions
